Laboratory results as given in US20240116918A1, “SUBSTITUTED TRICYCLIC COMPOUND AS PRMT5 INHIBITOR AND USE THEREOF” (NANJING SANHOME PHARMACEUTICAL CO., LTD., priority 2019, published 2024).

Legend:
MDA-MB-468 cells = assay: In vitro cell activity, MDA-MB-468 cells, CCK-8; format: cell-based; details: Homo sapiens, MDA-MB-468, 168 h, read-out: IC50 MDA-MB-468 Cell, triple negative breast cancer cells, 7 days
Experimental: Test compounds: the compounds of the present invention prepared in the above example. Each compound was formulated into a 10 mM stock solution with DMSO, and finally diluted into 8 concentrations for detection, with the final concentrations being 33333.00 nM, 6666.60 nM, 1333.32 nM, 266.66 nM, 53.33 nM, 10.67 nM, 2.13 nM, and 0.43 nM for experiments in Z-138 cells.
After thawing, the cryovial was taken out, and sterilized with an alcohol cotton ball, after which the cap was unscrewed. The cell fluid was drawn and injected into a centrifuge tube. 1 mL of L-15 medium containing 10% FBS was added, and mixed uniformly. The tube was placed in a centrifuge, and centrifuged at 1000 rpm for 5 min. Afterwards, the supernatant was discarded, and complete medium was added. The mixture was pipetted repeatedly until the cells were completely dispersed and resuspended. The mixture was inoculated in a petri dish at an appropriate concentration, and cultured in a CO2-free incubator at 37° C., and 95% humidified air.
The medium (Leibovitz's L-15 Medium+10% FBS+1% penicillin-streptomycin) was transferred to a 15 mL centrifuge tube, and centrifuged at 1000 rpm for 5 min. The supernatant was removed. The cells were resuspended in complete medium, and inoculated in a petri dish at the desired density. The dish was placed in a CO2-free incubator at 37° C., and 95% humid air. The culture medium was changed every 2-3 days or the passage was carried out, depending on the cell growth.
After passage, MDA-MB-468 cells were resuspended in complete medium at the corresponding density, 2000 cells/well, and inoculated in a 96-well culture plate. The wells at the outer circumference were filled with 200 μL PBS to prevent the culture conditions of the inner plate wells from being too different from each other due to the faster evaporation of medium at the edge. The leftmost column of the 60 inner wells were blank wells, which were not added with cells, but filled with equal volume of PBS. The remaining 54 wells were subjected to cell plating with a multichannel pipette, to each well was added 100 μL. The plate was placed in a CO2-free incubator and cultured at 37° C. for 24 h. […]
The first column of PBS was used as a blank control well, and 100 μL of CCK-8 was added synchronously thereto. […] The optimal detection time was determined according to the shade of color developed by CCK-8 (the optimal OD value for the DMSO group was about 1.0). […] The microplate reader software was opened, the detection parameters were adjusted, and the absorbance at 450 nm (OD value) was detected. The cover of the culture plate was removed, and the culture plate was directly placed horizontally in the plate groove to start reading. After the reading was finished, the program was saved, and the data was exported. […]

hERG potassium channel = hERG potassium channel (Homo sapiens (Human), UniProt Q12809); assay: Electrophysiological manual patch-clamp detection of effect on hERG potassium channel
hERG potassium channel, sequence (Q12809 whole entry): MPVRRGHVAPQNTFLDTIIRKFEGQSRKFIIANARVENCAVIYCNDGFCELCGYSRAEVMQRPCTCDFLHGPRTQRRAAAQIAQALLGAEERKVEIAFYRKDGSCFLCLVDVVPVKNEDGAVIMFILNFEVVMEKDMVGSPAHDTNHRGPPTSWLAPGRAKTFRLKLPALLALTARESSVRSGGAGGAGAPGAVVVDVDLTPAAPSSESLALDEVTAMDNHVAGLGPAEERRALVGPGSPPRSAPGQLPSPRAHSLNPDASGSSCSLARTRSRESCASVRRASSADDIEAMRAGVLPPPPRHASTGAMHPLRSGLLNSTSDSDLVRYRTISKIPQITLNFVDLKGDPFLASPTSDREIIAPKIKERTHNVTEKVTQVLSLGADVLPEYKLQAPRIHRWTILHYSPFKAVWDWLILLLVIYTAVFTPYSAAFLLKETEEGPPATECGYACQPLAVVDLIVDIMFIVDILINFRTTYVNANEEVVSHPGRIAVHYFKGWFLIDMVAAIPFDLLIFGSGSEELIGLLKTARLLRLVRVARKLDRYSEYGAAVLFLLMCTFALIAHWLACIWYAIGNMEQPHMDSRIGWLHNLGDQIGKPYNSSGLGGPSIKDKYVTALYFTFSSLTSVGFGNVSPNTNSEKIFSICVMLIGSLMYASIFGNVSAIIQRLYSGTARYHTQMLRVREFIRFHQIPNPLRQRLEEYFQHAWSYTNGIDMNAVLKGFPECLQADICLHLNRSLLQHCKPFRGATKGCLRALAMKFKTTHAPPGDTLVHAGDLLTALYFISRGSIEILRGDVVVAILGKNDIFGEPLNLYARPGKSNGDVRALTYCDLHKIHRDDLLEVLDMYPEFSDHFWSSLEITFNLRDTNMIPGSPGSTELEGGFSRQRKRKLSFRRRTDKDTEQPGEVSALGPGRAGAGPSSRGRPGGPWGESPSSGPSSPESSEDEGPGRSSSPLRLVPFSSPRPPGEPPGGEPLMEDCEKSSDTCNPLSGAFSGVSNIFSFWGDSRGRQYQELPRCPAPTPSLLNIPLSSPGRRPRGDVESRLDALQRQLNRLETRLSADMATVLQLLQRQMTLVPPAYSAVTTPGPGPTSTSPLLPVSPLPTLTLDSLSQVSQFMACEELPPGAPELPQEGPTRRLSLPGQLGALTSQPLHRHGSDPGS
Experimental: Preparation of test solvents: preparation of extracellular fluid (mM): 137 NaCl, 4 KCl, 1.8 CaCl2, 1 MgCl2, 10 glucose and 10 HEPES (pH 7.4); preparation of intracellular fluid (mM): 130 KCl, 1 MgCl2, 5 EGTA, 5 MgATP and 10 HEPES (pH 7.2); preparation of negative control: extracellular fluid+0.3% DMSO; positive control: quinidine.
Compound treatment: The compound was weighed and dissolved in DMSO to prepare a 10 mM stock solution, which was diluted with DMSO to form secondary stock solutions with concentrations of 3.3, 1.1, 0.37 and 0.12 mM. 90 μL each of the stock solution and the secondary stock solutions was diluted into 30 mL of extracellular fluid for electrophysiological detection. The final concentrations of the compound were 30, 10, 3.3, 1.1 and 0.37 μM, and the final concentration of DMSO was 3:1000.
Stably transfected cell culture: The cell line was originated from HEK-293 cells overexpressing hERG potassium ion channel. […] The cells were cultured in an incubator at 37° C. and 5% CO2. When the cell density reaches 80% of the petri dish, the cells were first pre-washed with phosphate buffered saline (PBS), then digested with trypsin/EDTA for 2-3 min. Cell culture medium was added to stop the digestion. The cells were gently blown down and transferred to a centrifuge tube, and centrifuged at 1000 rpm for 3 min. The supernatant was discarded, cell culture medium was added, and the cells were mixed uniformly by gentle tapping. After that, the mixture was transferred to a petri dish for subculture, or the cells were dripped on a round glass slide and placed on a petri dish for the cells to adhere for experiments.
Experiments on electrophysiological manual patch-clamp system: The stably transfected cells were inoculated on a glass slide with a cell density lower than 50%, and cultured overnight. The experimental cells were transferred to a bath of about 1 mL embedded in an inverted microscope platform, and the extracellular fluid was perfused at a perfusion rate of 2.7 mL/min. After 5 minutes of stabilization, the experiment was started. Membrane currents were recorded using HEKA EPC-10 patch clamp amplifier and [sequence] acquisition system. All the experiments were performed at room temperature (22-24° C.). Electrodes were drawn straight using P-97 microelectrode drawing instrument (BF150-110-10) in the experiments. The inner diameter of the electrode was 1-1.5 mm, and the pipette resistance after filling with the inner liquid was 2-4 MΩ. The electrophysiological stimulation scheme of hERG potassium channel included: first setting the membrane voltage at −80 mV, applying a stimulation to the cells at +20 mV voltage for 2 s to activate the hERG potassium channel, and then repolarizing to −50 mV for 5 s to generate an outward tail current. The stimulation frequency was once every 15 s. The current value was the peak value of the tail current. The channel currents were recorded in the whole-cell recording mode. Firstly, the extracellular fluid was perfused (about 2 mL per minute) while recording was continued. When the current was stabilized (the current decay (Run-Down) was less than 5% within 5 minutes), the peak value of the tail current was the control current value. Then, the extracellular fluid containing the drug to be tested was perfused while the recording was continued until the inhibitory effect of the drug on the hERG current reached a steady state. At this time, the peak value of the tail current was the current value after drug addition. […]

Row | SMILES | IC50 (MDA-MB-468 cells) [nM] | IC50 (hERG potassium channel) [nM] | inhibitory effect on the hERG potassium channel (in words) (hERG potassium channel; conclusion from Table 4)
1 | CC(=O)N1CCC(Nc2cc(C(=O)NC[C@H](O)CN3CCc4ccccc4C3)ncn2)CC1 [Compound A, (S)-6-((1-Acetylpiperidin-4-yl)amino)-N-(3-(3,4-dihydroisoquinolin-2(1H)-yl)-2-hydroxypropyl)pyrimidine-4-carboxamide] | 116 | – | –
2 | CC(=O)N1CCC(Nc2ccc3c(c2)C(=O)N(C[C@H](O)CN2CCc4ccccc4C2)CC32CC2)CC1 [Compound B, (R)-7′-((1-Acetylpiperidin-4-yl)amino)-2′-(3-(3,4-dihydroisoquinolin-2(1H)-yl)-2-hydroxypropyl)-2′,3′-dihydro-1′H-spiro[cyclopropane-1,4′-isoquinolin]-1′-one, reference compound] | 41.3 | 2710 | –
3 | CC(=O)N1CCC(Nc2cc3c(cn2)C2(CC2)CN(C[C@H](O)CN2CCc4ccccc4C2)C3=O)CC1 [Example 1, (R)-7′-((1-acetylpiperidin-4-yl)amino)-2′-(3-(3,4-dihydroisoquinolin-2(1H)-yl)-2-hydroxypropyl)-2′,3′-dihydro-1′H-spiro[cyclopropane-1,4′-[2,6]naphthyridin]-1′-one] | 11.6 | 5240 | weak inhibitory effect
4 | CC(=O)N1CC2(CC(Nc3cc4c(cn3)C3(CC3)CN(C[C@H](O)CN3CCc5ccccc5C3)C4=O)C2)C1 [Example 2, (R)-7′-((2-acetyl-2-azaspiro[3.3]hept-6-yl)amino)-2′-(3-(3,4-dihydroisoquinolin-2(1H)-yl)-2-hydroxypropyl)-2′,3′-dihydro-1′H-spiro[cyclopropane-1,4′-[2,6]naphthyridin]-1-one] | 7.35 | 15100 | –
